{"source": "ChEMBL document CHEMBL1201862", "about": "“PubChem BioAssay data set” (2004)", "key": {"Cytochrome P450 2C9": {"biological_target": "Cytochrome P450 2C9 (Homo sapiens, UniProt P11712)", "sequence (P11712 whole entry)": "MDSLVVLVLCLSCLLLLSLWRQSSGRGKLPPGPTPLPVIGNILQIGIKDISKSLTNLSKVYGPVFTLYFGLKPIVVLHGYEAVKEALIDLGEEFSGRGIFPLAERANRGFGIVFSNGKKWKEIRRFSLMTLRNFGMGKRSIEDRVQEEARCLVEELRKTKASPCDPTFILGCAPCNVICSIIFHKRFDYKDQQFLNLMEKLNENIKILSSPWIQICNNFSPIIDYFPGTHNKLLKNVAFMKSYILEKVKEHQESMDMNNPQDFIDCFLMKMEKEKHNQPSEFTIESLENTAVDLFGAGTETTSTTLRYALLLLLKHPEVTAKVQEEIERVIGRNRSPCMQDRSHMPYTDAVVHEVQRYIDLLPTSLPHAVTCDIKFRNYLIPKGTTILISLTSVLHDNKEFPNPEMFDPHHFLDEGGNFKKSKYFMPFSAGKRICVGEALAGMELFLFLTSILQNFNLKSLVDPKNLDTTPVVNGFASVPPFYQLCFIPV"}, "Cytochrome P450 2C19": {"biological_target": "Cytochrome P450 2C19 (Homo sapiens, UniProt P33261)", "sequence (P33261 whole entry)": "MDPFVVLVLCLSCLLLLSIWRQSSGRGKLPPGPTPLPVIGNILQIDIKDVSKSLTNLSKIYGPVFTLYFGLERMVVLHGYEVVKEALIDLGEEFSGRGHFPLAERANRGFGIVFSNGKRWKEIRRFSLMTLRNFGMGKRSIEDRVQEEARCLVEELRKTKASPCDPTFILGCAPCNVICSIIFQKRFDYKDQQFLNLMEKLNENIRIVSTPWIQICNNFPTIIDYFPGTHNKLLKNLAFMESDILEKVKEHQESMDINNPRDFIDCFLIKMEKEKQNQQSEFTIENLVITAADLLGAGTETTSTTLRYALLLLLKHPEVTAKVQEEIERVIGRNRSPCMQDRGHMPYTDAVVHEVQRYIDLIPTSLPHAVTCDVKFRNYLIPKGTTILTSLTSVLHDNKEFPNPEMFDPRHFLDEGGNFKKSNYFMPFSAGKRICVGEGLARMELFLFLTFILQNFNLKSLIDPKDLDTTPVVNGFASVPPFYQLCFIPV", "test": "Cytochrome panel assay with activity outcomes. Panel member name: p450-cyp2c19 Compounds with AC50 equal or less than 10 uM are considered active", "format": "functional", "settings": "read-out: AC50"}, "[1]": {"biological_target": "Sphingosine 1-phosphate receptor 2 (Homo sapiens, UniProt O95136)", "sequence (O95136 whole entry)": "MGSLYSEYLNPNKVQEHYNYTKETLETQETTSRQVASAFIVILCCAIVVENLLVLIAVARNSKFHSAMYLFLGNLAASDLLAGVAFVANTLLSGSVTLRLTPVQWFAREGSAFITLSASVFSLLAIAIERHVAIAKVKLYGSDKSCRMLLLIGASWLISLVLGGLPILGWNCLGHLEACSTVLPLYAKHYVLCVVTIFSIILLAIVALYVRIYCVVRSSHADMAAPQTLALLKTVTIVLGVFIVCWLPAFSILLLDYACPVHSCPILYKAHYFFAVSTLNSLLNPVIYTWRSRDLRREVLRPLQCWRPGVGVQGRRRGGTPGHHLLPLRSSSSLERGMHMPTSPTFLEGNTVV", "test": "Dose Response Cell Based Assay for Antagonists of the S1P2 Receptor. [Related pubchem assays: 856, 736 ]", "format": "functional"}, "[2]": {"test": "P. falciparum Dd2 growth inhibitors, dose response, SYBR Green, dry powder samples, set 9 (AID 1159568)", "format": "functional, cell-based"}, "Estrogen receptor beta [3]": {"biological_target": "T1, Estrogen receptor beta (Homo sapiens, UniProt Q92731)", "T1 sequence (Q92731 whole entry)": "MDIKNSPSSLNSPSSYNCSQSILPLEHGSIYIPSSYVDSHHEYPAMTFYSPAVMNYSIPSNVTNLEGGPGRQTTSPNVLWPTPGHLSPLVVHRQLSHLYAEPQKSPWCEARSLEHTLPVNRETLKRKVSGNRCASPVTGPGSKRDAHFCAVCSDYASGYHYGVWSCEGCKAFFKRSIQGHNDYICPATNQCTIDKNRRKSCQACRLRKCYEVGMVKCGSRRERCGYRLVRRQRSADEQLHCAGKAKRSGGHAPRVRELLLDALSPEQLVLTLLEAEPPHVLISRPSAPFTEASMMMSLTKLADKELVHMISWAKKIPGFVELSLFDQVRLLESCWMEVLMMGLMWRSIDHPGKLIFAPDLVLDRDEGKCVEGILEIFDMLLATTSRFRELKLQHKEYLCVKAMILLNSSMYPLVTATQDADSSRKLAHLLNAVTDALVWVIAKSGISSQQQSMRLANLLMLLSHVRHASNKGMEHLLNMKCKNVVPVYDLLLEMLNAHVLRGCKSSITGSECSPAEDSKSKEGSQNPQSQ", "test": "ERβ–SRC-3 coactivator interaction inhibitors, confirmation, orthogonal assay, biochemical, ELISA, streptavidin-HRP readout (AID 1060)"}, "[4]": {"biological_target": "Induced myeloid leukemia cell differentiation protein Mcl-1 (Homo sapiens, UniProt Q07820)", "sequence (Q07820 whole entry)": "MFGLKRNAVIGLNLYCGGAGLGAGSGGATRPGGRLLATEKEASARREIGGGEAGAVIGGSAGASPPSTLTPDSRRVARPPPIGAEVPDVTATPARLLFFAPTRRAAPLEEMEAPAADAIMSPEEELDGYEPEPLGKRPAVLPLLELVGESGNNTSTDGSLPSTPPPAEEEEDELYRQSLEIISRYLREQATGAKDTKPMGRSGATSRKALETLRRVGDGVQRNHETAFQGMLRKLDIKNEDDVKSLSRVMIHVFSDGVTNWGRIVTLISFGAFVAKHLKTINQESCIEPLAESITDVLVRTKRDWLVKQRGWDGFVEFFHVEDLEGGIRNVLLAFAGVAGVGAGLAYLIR", "format": "functional"}, "[5]": {"test": "C. albicans growth with fluconazole, confirmation, fluorescence, retest (AID 2467)", "format": "functional, cell-based"}, "[6]": {"test": "NIH-3T3 fibroblast cytotoxicity, dose response, cytotoxicity control, cell-based, fluorescence, Alamar Blue, secondary assay (AID 2327);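 also: NIH-3T3 mouse fibroblasts cultured with fluconazole at 8 µg/mL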", "format": "functional"}, "[7]": {"biological_target": "T2, Heat shock factor protein 1 (Mus musculus, UniProt P38532)", "T2 sequence (P38532 whole entry)": "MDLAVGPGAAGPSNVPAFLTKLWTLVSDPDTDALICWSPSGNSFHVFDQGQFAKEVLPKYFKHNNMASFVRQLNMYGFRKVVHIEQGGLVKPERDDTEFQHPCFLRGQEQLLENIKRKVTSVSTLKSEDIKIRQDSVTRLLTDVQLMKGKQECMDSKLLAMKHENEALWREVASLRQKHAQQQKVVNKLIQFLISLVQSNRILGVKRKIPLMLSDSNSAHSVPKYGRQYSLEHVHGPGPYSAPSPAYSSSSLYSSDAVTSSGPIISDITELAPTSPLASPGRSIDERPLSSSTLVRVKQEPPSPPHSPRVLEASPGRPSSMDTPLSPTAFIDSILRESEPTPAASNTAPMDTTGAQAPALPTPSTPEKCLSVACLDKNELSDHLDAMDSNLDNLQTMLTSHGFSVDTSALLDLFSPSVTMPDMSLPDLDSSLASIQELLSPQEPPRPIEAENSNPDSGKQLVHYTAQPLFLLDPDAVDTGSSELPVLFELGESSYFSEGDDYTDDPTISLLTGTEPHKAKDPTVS", "test": "HSF1 potentiators in luciferase reporter cells, confirmation, cell-based, NIH3T3, luminescence, dose retest (AID 435004);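 also: stress induced by proteasome inhibitor MG132 added 30 min after compound; actives raise luminescence as potentiators of the MG132 stress response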", "format": "functional"}, "[8]": {"test": "cytotoxicity in KRAS-transformed pancreatic duct cells, primary screen, cell-based, fluorescence, HTS (AID 431)", "format": "functional", "settings": "Homo sapiens"}, "[9]": {"test": "cytotoxicity in HPDE-C7 cells, cell-based, fluorescence, HTS (AID 430)", "format": "functional", "settings": "Homo sapiens"}, "Estrogen receptor beta [10]": {"biological_target": "T1, Estrogen receptor beta"}, "Ephrin type-A receptor 4": {"biological_target": "Ephrin type-A receptor 4 (Mus musculus, UniProt Q03137)", "sequence (Q03137 whole entry)": "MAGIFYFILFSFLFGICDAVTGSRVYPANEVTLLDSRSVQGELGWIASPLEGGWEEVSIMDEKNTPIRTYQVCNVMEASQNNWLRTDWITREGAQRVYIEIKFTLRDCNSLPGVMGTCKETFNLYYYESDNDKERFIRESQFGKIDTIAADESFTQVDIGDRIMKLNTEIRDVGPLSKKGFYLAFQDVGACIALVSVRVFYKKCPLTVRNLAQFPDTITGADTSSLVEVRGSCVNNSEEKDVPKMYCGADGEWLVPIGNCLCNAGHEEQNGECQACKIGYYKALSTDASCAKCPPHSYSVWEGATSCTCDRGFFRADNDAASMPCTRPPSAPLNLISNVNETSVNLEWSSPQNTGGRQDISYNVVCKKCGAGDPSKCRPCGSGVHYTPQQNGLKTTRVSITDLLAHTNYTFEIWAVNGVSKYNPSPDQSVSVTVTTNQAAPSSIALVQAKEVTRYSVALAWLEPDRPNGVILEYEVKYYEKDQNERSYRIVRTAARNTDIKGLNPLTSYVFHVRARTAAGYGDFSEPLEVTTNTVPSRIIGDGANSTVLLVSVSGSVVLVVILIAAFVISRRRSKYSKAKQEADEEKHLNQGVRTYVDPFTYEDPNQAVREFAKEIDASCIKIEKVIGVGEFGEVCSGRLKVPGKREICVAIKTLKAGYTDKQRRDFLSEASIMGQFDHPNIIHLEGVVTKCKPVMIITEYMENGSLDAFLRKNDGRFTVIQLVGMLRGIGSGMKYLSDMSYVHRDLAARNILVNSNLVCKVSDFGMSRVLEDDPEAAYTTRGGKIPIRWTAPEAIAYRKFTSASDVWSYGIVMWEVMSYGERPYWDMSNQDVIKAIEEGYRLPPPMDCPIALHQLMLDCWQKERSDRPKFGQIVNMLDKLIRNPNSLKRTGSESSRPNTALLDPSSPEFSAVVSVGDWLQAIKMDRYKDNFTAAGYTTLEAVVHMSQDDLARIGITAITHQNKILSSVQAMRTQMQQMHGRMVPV", "test": "inhibitors of EphA4 binding to KYL peptide, primary screen, biochemical, colorimetric, mouse EphA4 (AID 689)", "format": "functional"}, "[11]": {"test": "Luminescence-based dose response cell-based high throughput screening assay for cytotoxic compounds using the IEC-6 intestinal epithelial cell line. [Related pubchem assays: 1858 (Summary AID.), 1825 (Counterscreen.), 1907 (Confirmation screen.)]", "format": "functional"}, "[12]": {"biological_target": "Mitogen-activated protein kinase 10 (Homo sapiens, UniProt P53779)", "sequence (P53779 whole entry)": "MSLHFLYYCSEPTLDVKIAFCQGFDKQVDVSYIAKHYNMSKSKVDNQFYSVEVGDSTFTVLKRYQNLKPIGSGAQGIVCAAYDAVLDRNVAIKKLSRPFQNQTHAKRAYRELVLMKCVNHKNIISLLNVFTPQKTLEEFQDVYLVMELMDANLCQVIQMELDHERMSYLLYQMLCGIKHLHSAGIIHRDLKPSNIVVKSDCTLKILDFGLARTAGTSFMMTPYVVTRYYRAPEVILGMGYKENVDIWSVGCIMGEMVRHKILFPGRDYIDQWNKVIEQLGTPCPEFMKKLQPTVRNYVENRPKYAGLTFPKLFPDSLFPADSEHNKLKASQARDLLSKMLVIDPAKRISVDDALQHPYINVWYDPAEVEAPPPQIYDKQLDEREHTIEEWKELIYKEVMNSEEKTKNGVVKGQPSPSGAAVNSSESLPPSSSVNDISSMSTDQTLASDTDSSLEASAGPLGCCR", "test": "Dose response biochemical screening assay for inhibitors of c-Jun N-Terminal Kinase 3 (JNK3). [Related pubchem assays: 746 ]"}, "[13]": {"test": "P. falciparum late gametocyte killing, dose response, luminescence (AID 1117278);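 also: gametocytes exposed to compound for 24 hours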", "format": "functional, cell-based"}, "[14]": {"test": "Jurkat T cell cytotoxicity, dose response, cytotoxicity control for P. falciparum gametocyte viability project, luminescence (AID 1117277);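 also: potency reflects loss of cellular ATP meaning fewer viable cells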", "format": "functional, cell-based"}, "[15]": {"test": "THP-1 cell cytotoxicity, dose response, cytotoxicity control for Vif-APOBEC3G degradation inhibitor project, THP-1 cells (AID 1117359)", "format": "functional", "settings": "Human immunodeficiency virus 1, THP-1"}, "Protein Tat": {"biological_target": "Protein Tat (Human immunodeficiency virus type 1 group M subtype B (isolate HXB2)(HIV-1), UniProt P04608)", "sequence (P04608 whole entry)": "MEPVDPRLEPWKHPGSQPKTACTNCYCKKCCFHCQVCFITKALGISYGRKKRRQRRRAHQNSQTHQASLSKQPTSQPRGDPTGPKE", "format": "functional"}}, "note": "The source made the active and inactive calls."}
{"smiles": "O=C(O)c1sc2cc(C(F)(F)F)cnc2c1-c1ccccc1", "values": [{"measurement": "AC50", "setting": "Cytochrome P450 2C9", "value": "28.2 µM (inconclusive)"}, {"measurement": "AC50", "setting": "Cytochrome P450 2C19", "value": "39.8 µM (inconclusive)"}, {"measurement": "IC50", "setting": "[1]", "value": "> 30 µM (not active)"}]}
{"smiles": "C[C@@H]1CCCCO[C@@H](CN(C)S(=O)(=O)c2ccc(F)cc2)[C@@H](C)CN([C@H](C)CO)C(=O)c2cc(N(C)C)ccc2O1", "values": [{"measurement": "AC50", "setting": "[2]", "value": "7.15 µM (active)"}]}
{"smiles": "COc1cc(C(Nc2ccccn2)c2ccc3ccc(C)nc3c2O)cc(OC)c1O", "note": "(centres undefined)", "values": [{"measurement": "IC50", "setting": "Estrogen receptor beta [3]", "value": "> 109 µM (not active)"}, {"measurement": "IC50", "setting": "[4]", "value": "0.786 µM (active)"}, {"measurement": "EC50", "setting": "[5]", "value": "> 38 µM (not active)"}, {"measurement": "EC50", "setting": "[6]", "value": "5.42 µM (inconclusive)"}, {"measurement": "EC50", "setting": "[7]", "value": "4.22 µM (active)"}, {"measurement": "EC50", "setting": "[8]", "value": "4.83 µM (active)"}, {"measurement": "EC50", "setting": "[9]", "value": "4.68 µM (active)"}, {"measurement": "IC50", "setting": "Estrogen receptor beta [10]", "value": "3.13 µM (active)"}, {"measurement": "IC50", "setting": "Ephrin type-A receptor 4", "value": "2.02 µM (active)"}]}
{"smiles": "CCC[C@@H](CNC)NC[C@H](Cc1ccccc1)NCCCCc1ccccc1", "values": [{"measurement": "IC50", "setting": "[11]", "value": "5.4 µM (active)"}]}
{"smiles": "O=C1c2ccccc2C(=O)C1c1ccncc1", "values": [{"measurement": "IC50", "setting": "[12]", "value": "18 µM (not active)"}]}
{"smiles": "Cc1ccc(-c2csc3ncnc(S)c23)cc1", "values": [{"measurement": "IC50", "setting": "[13]", "value": "> 109 µM (inactive)"}, {"measurement": "IC50", "setting": "[14]", "value": "76.2 µM (inactive)"}]}
{"smiles": "COc1ccc(S(=O)(=O)c2c(N)n(Cc3ccco3)c3nc4ccccc4nc23)cc1", "values": [{"measurement": "CC50", "setting": "[15]", "value": "> 40 µM (active)"}, {"measurement": "IC50", "setting": "Protein Tat", "value": "3.46 µM (inconclusive)"}]}
